Laboratory results as given in ChEMBL document CHEMBL5625187, “A facile and selective derivatization approach on kynurenine-NH2 in daptomycin, leading to the discovery of hexakynomycin to combat multidrug-resistant Gram-positive pathogens especially daptomycin-resistant bacteria” (Eur J Med Chem, 2023).

Key:
Assay type in all cases: functional
Staphylococcus aureus [1] = test: Potency index, ratio of daptomycin MIC to test compound MIC for antibacterial activity against methicillin-susceptible Staphylococcus aureus Newman ATCC 25904
Enterococcus faecium [2] = test: Antibacterial activity against glycopeptide-resistant Enterococcus faecium Efm-HS-0649 assessed as reduction in microbial growth incubated for 24 hrs by broth microdilution method
Staphylococcus aureus [3] = test: Antibacterial activity against methicillin-susceptible Staphylococcus aureus Newman ATCC 25904 assessed as reduction in microbial growth incubated for 24 hrs by broth microdilution method
Staphylococcus aureus [4] = test: Antibacterial activity against methicillin-resistant Staphylococcus aureus USA300 assessed as reduction in microbial growth incubated for 24 hrs by broth microdilution method
Staphylococcus aureus [5] = test: Antibacterial activity against vancomycin-intermediate resistant Staphylococcus aureus Mu 50 assessed as reduction in microbial growth incubated for 24 hrs by broth microdilution method
Enterococcus faecium [6] = test: Potency index, ratio of daptomycin MIC to test compound MIC for antibacterial activity against glycopeptide-resistant Enterococcus faecium Efm-HS-0649
Staphylococcus aureus [7] = test: Antibacterial activity against vancomycin-intermediate resistant Staphylococcus aureus ATCC 700699 assessed as reduction in microbial growth incubated for 24 hrs by broth microdilution method
Enterococcus faecalis [8] = test: Antibacterial activity against Enterococcus faecalis EFA 20-1 assessed as reduction in microbial growth incubated for 24 hrs by broth microdilution method
Enterococcus faecalis [9] = test: Antibacterial activity against vancomycin-resistant Enterococcus faecalis VREfa 20-1 assessed as reduction in microbial growth incubated for 24 hrs by broth microdilution method

CCCCCCCCCCNc1ccccc1C(=O)C[C@@H]1NC(=O)[C@H]([C@H](C)CC(=O)O)NC(=O)[C@@H](CO)NC(=O)CNC(=O)[C@H](CC(=O)O)NC(=O)[C@@H](C)NC(=O)[C@H](CC(=O)O)NC(=O)[C@H](CCCN)NC(=O)CNC(=O)[C@@H](NC(=O)[C@H](CC(=O)O)NC(=O)[C@@H](CC(N)=O)NC(=O)[C@H](Cc2c[nH]c3ccccc23)NC(=O)CCCCCCCCC)[C@@H](C)OC1=O (single isomer, unassigned)
Ratio (Staphylococcus aureus [1]): 2 | MIC (Enterococcus faecium [2]): 2 µg/mL | MIC (Staphylococcus aureus [3]): 2 µg/mL | MIC (Staphylococcus aureus [4]): 2 µg/mL | MIC (Staphylococcus aureus [5]): 4 µg/mL | Ratio (Enterococcus faecium [6]): 2

CCCCCCCCCC(=O)N[C@@H](Cc1c[nH]c2ccccc12)C(=O)N[C@H](CC(N)=O)C(=O)N[C@@H](CC(=O)O)C(=O)N[C@@H]1C(=O)NCC(=O)N[C@@H](CCCN)C(=O)N[C@@H](CC(=O)O)C(=O)N[C@H](C)C(=O)N[C@@H](CC(=O)O)C(=O)NCC(=O)N[C@H](CO)C(=O)N[C@@H]([C@H](C)CC(=O)O)C(=O)N[C@@H](CC(=O)c2ccccc2NCc2ccccc2)C(=O)O[C@@H]1C
Ratio (Staphylococcus aureus [1]): 4 | MIC (Enterococcus faecium [2]): 1 µg/mL | MIC (Staphylococcus aureus [3]): 0.5 µg/mL | MIC (Staphylococcus aureus [4]): 0.5 µg/mL | MIC (Staphylococcus aureus [5]): 4 µg/mL | Ratio (Enterococcus faecium [6]): 4

CCCCCCCCCC(=O)N[C@@H](Cc1c[nH]c2ccccc12)C(=O)N[C@H](CC(N)=O)C(=O)N[C@@H](CC(=O)O)C(=O)N[C@@H]1C(=O)NCC(=O)N[C@@H](CCCN)C(=O)N[C@@H](CC(=O)O)C(=O)N[C@H](C)C(=O)N[C@@H](CC(=O)O)C(=O)NCC(=O)N[C@H](CO)C(=O)N[C@@H]([C@H](C)CC(=O)O)C(=O)N[C@@H](CC(=O)c2ccccc2NCCCCCCCC)C(=O)O[C@@H]1C (single isomer, unassigned)
Ratio (Staphylococcus aureus [1]): 2 | MIC (Enterococcus faecium [2]): 0.5 µg/mL | MIC (Staphylococcus aureus [3]): 1 µg/mL | MIC (Staphylococcus aureus [4]): 1 µg/mL | MIC (Staphylococcus aureus [5]): 4 µg/mL | Ratio (Enterococcus faecium [6]): 2

CCCCCCCCCC(=O)N[C@@H](Cc1c[nH]c2ccccc12)C(=O)N[C@H](CC(N)=O)C(=O)N[C@@H](CC(=O)O)C(=O)N[C@@H]1C(=O)NCC(=O)N[C@@H](CCCN)C(=O)N[C@@H](CC(=O)O)C(=O)N[C@H](C)C(=O)N[C@@H](CC(=O)O)C(=O)NCC(=O)N[C@H](CO)C(=O)N[C@@H]([C@H](C)CC(=O)O)C(=O)N[C@@H](CC(=O)c2ccccc2NCc2ccccn2)C(=O)O[C@@H]1C
Ratio (Staphylococcus aureus [1]): 8 | MIC (Enterococcus faecium [2]): 8 µg/mL | MIC (Staphylococcus aureus [3]): 8 µg/mL | MIC (Staphylococcus aureus [4]): 4 µg/mL | MIC (Staphylococcus aureus [5]): 32 µg/mL | Ratio (Enterococcus faecium [6]): 8

CCCCCCCCCC(=O)N[C@@H](Cc1c[nH]c2ccccc12)C(=O)N[C@H](CC(N)=O)C(=O)N[C@@H](CC(=O)O)C(=O)N[C@@H]1C(=O)NCC(=O)N[C@@H](CCCN)C(=O)N[C@@H](CC(=O)O)C(=O)N[C@H](C)C(=O)N[C@@H](CC(=O)O)C(=O)NCC(=O)N[C@H](CO)C(=O)N[C@@H]([C@H](C)CC(=O)O)C(=O)N[C@@H](CC(=O)c2ccccc2NC)C(=O)O[C@@H]1C
Ratio (Staphylococcus aureus [1]): 2 | MIC (Enterococcus faecium [2]): 4 µg/mL | MIC (Staphylococcus aureus [3]): 1 µg/mL | MIC (Staphylococcus aureus [4]): 1 µg/mL | MIC (Staphylococcus aureus [5]): 4 µg/mL | Ratio (Enterococcus faecium [6]): 2

CCCCCCCCCC(=O)N[C@@H](Cc1c[nH]c2ccccc12)C(=O)N[C@H](CC(N)=O)C(=O)N[C@@H](CC(=O)O)C(=O)N[C@@H]1C(=O)NCC(=O)N[C@@H](CCCN)C(=O)N[C@@H](CC(=O)O)C(=O)N[C@H](C)C(=O)N[C@@H](CC(=O)O)C(=O)NCC(=O)N[C@H](CO)C(=O)N[C@@H]([C@H](C)CC(=O)O)C(=O)N[C@@H](CC(=O)c2ccccc2NCCCC)C(=O)O[C@@H]1C (single isomer, unassigned)
Ratio (Staphylococcus aureus [1]): 2 | MIC (Enterococcus faecium [2]): 1 µg/mL | MIC (Staphylococcus aureus [3]): 0.5 µg/mL | MIC (Staphylococcus aureus [4]): 0.5 µg/mL | MIC (Staphylococcus aureus [5]): 4 µg/mL | Ratio (Enterococcus faecium [6]): 2

CCCCCCCCCNc1ccccc1C(=O)C[C@@H]1NC(=O)[C@H]([C@H](C)CC(=O)O)NC(=O)[C@@H](CO)NC(=O)CNC(=O)[C@H](CC(=O)O)NC(=O)[C@@H](C)NC(=O)[C@H](CC(=O)O)NC(=O)[C@H](CCCN)NC(=O)CNC(=O)[C@@H](NC(=O)[C@H](CC(=O)O)NC(=O)[C@@H](CC(N)=O)NC(=O)[C@H](Cc2c[nH]c3ccccc23)NC(=O)CCCCCCCCC)[C@@H](C)OC1=O (single isomer, unassigned)
Ratio (Staphylococcus aureus [1]): 2 | MIC (Enterococcus faecium [2]): 1 µg/mL | MIC (Staphylococcus aureus [3]): 2 µg/mL | MIC (Staphylococcus aureus [4]): 1 µg/mL | MIC (Staphylococcus aureus [5]): 4 µg/mL | Ratio (Enterococcus faecium [6]): 2

CN[C@H](CC(C)C)C(=O)N[C@H]1C(=O)N[C@@H](CC(N)=O)C(=O)N[C@H]2C(=O)N[C@H]3C(=O)N[C@H](C(=O)N[C@H](C(=O)O)c4cc(O)cc(O)c4-c4cc3ccc4O)[C@H](O)c3ccc(c(Cl)c3)Oc3cc2cc(c3O[C@@H]2O[C@H](CO)[C@@H](O)[C@H](O)[C@H]2O[C@H]2C[C@](C)(N)[C@H](O)[C@H](C)O2)Oc2ccc(cc2Cl)[C@H]1O [VANCOMYCIN]
MIC (Staphylococcus aureus [7]): 8 µg/mL | MIC (Enterococcus faecium [2]): > 128 µg/mL | MIC (Enterococcus faecalis [8]): 1 µg/mL | MIC (Enterococcus faecalis [9]): > 16 µg/mL | MIC (Staphylococcus aureus [5]): 8 µg/mL

CCCCCCCCCC(=O)N[C@@H](Cc1c[nH]c2ccccc12)C(=O)N[C@H](CC(N)=O)C(=O)N[C@@H](CC(=O)O)C(=O)N[C@@H]1C(=O)NCC(=O)N[C@@H](CCCN)C(=O)N[C@@H](CC(=O)O)C(=O)N[C@H](C)C(=O)N[C@@H](CC(=O)O)C(=O)NCC(=O)N[C@H](CO)C(=O)N[C@@H]([C@H](C)CC(=O)O)C(=O)N[C@@H](CC(=O)c2ccccc2NCCCCC)C(=O)O[C@@H]1C (single isomer, unassigned)
Ratio (Staphylococcus aureus [1]): 2 | MIC (Enterococcus faecium [2]): 0.5 µg/mL | MIC (Staphylococcus aureus [3]): 0.5 µg/mL | MIC (Staphylococcus aureus [4]): 0.125 µg/mL | MIC (Staphylococcus aureus [5]): 2 µg/mL | Ratio (Enterococcus faecium [6]): 2

CCCCCCCCCC(=O)N[C@@H](Cc1c[nH]c2ccccc12)C(=O)N[C@H](CC(N)=O)C(=O)N[C@@H](CC(=O)O)C(=O)N[C@@H]1C(=O)NCC(=O)N[C@@H](CCCN)C(=O)N[C@@H](CC(=O)O)C(=O)N[C@H](C)C(=O)N[C@@H](CC(=O)O)C(=O)NCC(=O)N[C@H](CO)C(=O)N[C@@H]([C@H](C)CC(=O)O)C(=O)N[C@@H](CC(=O)c2ccccc2NCCCCCCC)C(=O)O[C@@H]1C (single isomer, unassigned)
Ratio (Staphylococcus aureus [1]): 2 | MIC (Enterococcus faecium [2]): 0.25 µg/mL | MIC (Staphylococcus aureus [3]): 0.5 µg/mL | MIC (Staphylococcus aureus [4]): 0.25 µg/mL | MIC (Staphylococcus aureus [5]): 2 µg/mL | Ratio (Enterococcus faecium [6]): 2

CCCCCCCCCC(=O)N[C@@H](Cc1c[nH]c2ccccc12)C(=O)N[C@H](CC(N)=O)C(=O)N[C@@H](CC(=O)O)C(=O)N[C@@H]1C(=O)NCC(=O)N[C@@H](CCCN)C(=O)N[C@@H](CC(=O)O)C(=O)N[C@H](C)C(=O)N[C@@H](CC(=O)O)C(=O)NCC(=O)N[C@H](CO)C(=O)N[C@@H]([C@H](C)CC(=O)O)C(=O)N[C@@H](CC(=O)c2ccccc2NCC)C(=O)O[C@@H]1C (single isomer, unassigned)
Ratio (Staphylococcus aureus [1]): 2 | MIC (Enterococcus faecium [2]): 1 µg/mL | MIC (Staphylococcus aureus [3]): 1 µg/mL | MIC (Staphylococcus aureus [4]): 1 µg/mL | MIC (Staphylococcus aureus [5]): 4 µg/mL | Ratio (Enterococcus faecium [6]): 2

CCCCCCCCCC(=O)N[C@@H](Cc1c[nH]c2ccccc12)C(=O)N[C@H](CC(N)=O)C(=O)N[C@@H](CC(=O)O)C(=O)N[C@@H]1C(=O)NCC(=O)N[C@@H](CCCN)C(=O)N[C@@H](CC(=O)O)C(=O)N[C@H](C)C(=O)N[C@@H](CC(=O)O)C(=O)NCC(=O)N[C@H](CO)C(=O)N[C@@H]([C@H](C)CC(=O)O)C(=O)N[C@@H](CC(=O)c2ccccc2NCCC)C(=O)O[C@@H]1C
Ratio (Staphylococcus aureus [1]): 2 | MIC (Enterococcus faecium [2]): 1 µg/mL | MIC (Staphylococcus aureus [3]): 1 µg/mL | MIC (Staphylococcus aureus [4]): 0.5 µg/mL | MIC (Staphylococcus aureus [5]): 4 µg/mL | Ratio (Enterococcus faecium [6]): 2

CCCCCCCCCC(=O)N[C@@H](Cc1c[nH]c2ccccc12)C(=O)N[C@H](CC(N)=O)C(=O)N[C@@H](CC(=O)O)C(=O)N[C@@H]1C(=O)NCC(=O)N[C@@H](CCCN)C(=O)N[C@@H](CC(=O)O)C(=O)N[C@H](C)C(=O)N[C@@H](CC(=O)O)C(=O)NCC(=O)N[C@H](CO)C(=O)N[C@@H]([C@H](C)CC(=O)O)C(=O)N[C@@H](CC(=O)c2ccccc2NCc2ccc3c(c2)CCO3)C(=O)O[C@@H]1C
MIC (Enterococcus faecium [2]): 2 µg/mL | MIC (Staphylococcus aureus [3]): 1 µg/mL | MIC (Staphylococcus aureus [4]): 1 µg/mL | MIC (Staphylococcus aureus [5]): 4 µg/mL
